Among the data in ChEMBL document CHEMBL1157390, “Aplysinoplides A-C, cytotoxic sesterterpenes from the marine sponge Aplysinopsis digitata” (J Nat Prod, 2008) are IC50 and Activity values, retold here.

The test system of one test is P388. In words: Cytotoxicity against mouse P388 cells after 96 hrs by MTT assay. In kind it is functional, cell-based. To be noted: P388, 96 h.
Test [1] addresses Phospholipase A2 (Bos taurus) (UniProt P00593). The experiment in a line: Inhibition of bovine pancreas PLA2 at 100 uM by pH-stat assay.

Converted amounts (≈) assume the structure as drawn. The source made the active and inactive calls. The rule behind the calls is not given here.

Phospholipase A2 (Bos taurus), sequence (P00593 whole entry): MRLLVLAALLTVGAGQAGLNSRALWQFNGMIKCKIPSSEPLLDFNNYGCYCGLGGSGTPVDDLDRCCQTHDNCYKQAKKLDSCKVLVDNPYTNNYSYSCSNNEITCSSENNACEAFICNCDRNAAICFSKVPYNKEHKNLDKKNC

In the test with P388, `CC1=C(CC/C(C)=C/CC/C(=C\C=C\C2=CC(=O)OC2O)CO)C(C)(C)CCC1` (stereo unspecified) [APLYSINOPLIDE A] registered an IC50 of 0.45 µg/mL (≈ 1.12 µM). Besides, in test [1], the result was inactive. In the test with P388, `CC1=C(CC/C(C)=C/CC/C(=C\CC(O)C2=CC(=O)OC2O)CO)C(C)(C)CCC1` (stereo unspecified) [APLYSINOPLIDE B] had an IC50 of 0.45 µg/mL (≈ 1.08 µM). For the same molecule, in test [1], the result was inactive. `C/C(=C\CC/C(=C/CC1OC(=O)C=C1CO)CO)CCC1C(C)(C)CCCC1(C)O` (stereo unspecified) [APLYSINOPLIDE C] returned an IC50 with P388 of 11 µg/mL (≈ 26.2 µM).

As to `CC1=C(CC/C(C)=C/CCC2=CC[C@H](C3=CC(=O)O[C@H]3O)O[C@H]2O)C(C)(C)CCC1`, in test [1], the result was Active.

One may read the IC50 as the concentration that inhibits the measured activity by half. Lower therefore signals inhibition by little substance.
